According to patent publication US12152020B2, “Pesticidally active azole-amide compounds” (SYNGENTA PARTICIPATIONS AG, priority 2018, dated 2024):

Legend:
Type in all cases: in vivo
[1] = tested on: Chilo suppressalis (Striped Rice Stemborer); assay: Example B4: Chilo suppressalis, artificial diet, L2 larvae; conditions: 144 h, application rate of 200 ppm, 6 days after infestation, in comparison to untreated samples, read-out: control in at least one of the categories (mortality, anti-feedant effect, or growth inhibition)
Summary of the method: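 Artificial diet was treated with aqueous dilutions made from 10'000 ppm DMSO stocks, dried, then infested with L2 larvae at 6–8 per well. Mortality, antifeedant effect and growth inhibition were assessed against untreated samples 6 days after infestation.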

[2] = tested on: Plutella xylostella (Diamond Back Moth); assay: Example B5: Plutella xylostella, artificial diet in 24-well plates, eggs; conditions: 192 h, application rate of 200 ppm, 8 days after infestation, in comparison to untreated samples, read-out: effect in at least one of the two categories (mortality or growth inhibition)
Summary of the method: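 Artificial diet in 24-well plates treated with aqueous test solutions made from 10′000 ppm DMSO stocks, dried, then infested with Plutella eggs. Mortality and growth inhibition scored against untreated samples 8 days after infestation.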

[3] = tested on: Myzus persicae (Green Peach Aphid); assay: Example B8: Myzus persicae intrinsic activity, sucrose solution under Parafilm, 24-well; conditions: 120 h, test rate of 12 ppm, 5 days after infestation
Summary of the method: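 Compounds, diluted from 10′000 ppm DMSO stocks, were mixed with sucrose solution in wells sealed with stretched Parafilm. Aphid-infested pea seedlings were placed on the Parafilm, and the covered plate was turned upside down. Mortality was scored 5 days after infestation.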

[4] = tested on: Spodoptera littoralis (Egyptian Cotton Leaf Worm); assay: Example B9: Spodoptera littoralis, cotton leaf discs sprayed, L1 larvae; conditions: foliar, 72 h, application rate of 200 ppm, five L1 larvae, 3 days after infestation, in comparison to untreated samples, read-out: control in at least one of the categories (mortality, anti-feedant effect, or growth inhibition)
Summary of the method: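 Cotton leaf discs on agar sprayed with aqueous solutions made from 10′000 ppm DMSO stocks, dried, then infested with five L1 larvae. Mortality, anti-feeding and growth inhibition assessed against untreated samples 3 days after infestation; control counted when any category exceeded untreated.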

[5] = tested on: Tetranychus urticae (Two-Spotted Spider Mite); assay: Example B11: Tetranychus urticae feeding/contact activity, bean leaf discs; conditions: foliar, 192 h
Experimental: Example B11: Tetranychus urticae (Two-Spotted Spider Mite): Feeding/Contact Activity
Bean leaf discs on agar in 24-well microtiter plates were sprayed with aqueous test solutions prepared from 10′000 ppm DMSO stock solutions. After drying the leaf discs were infested with a mite population of mixed ages. The samples were assessed for mortality on mixed population (mobile stages) 8 days after infestation.

COCCOc1nc(C(C)NC(=O)c2cc(C(F)(F)F)cc(C(F)(F)F)c2)n(-c2ncccn2)n1 (centres unmarked) [Compound P36, N-[1-[5-(2-methoxyethoxy)-2-pyrimidin-2-yl-1,2,4-triazol-3-yl]ethyl]-3,5-bis(trifluoromethyl) benzamide]
≥ 80%: percent control (mortality, anti-feedant effect or growth inhibition) at 200 ppm [1] | percent effect (mortality or growth inhibition) at 200 ppm [2] | mortality at 12 ppm [3] | percent control (mortality, anti-feedant effect or growth inhibition) at 200 ppm [4] | mortality at 200 ppm [5]
